Molecules are shown by their SMILES.

Series [1] can be described thus: MTT cell viability assay. Type of series: cell-based, human. The following applies: human, HaCaT keratinocyte cells (healthy control line), 24 h, compounds 0.01–40 μM, healthy control line, read-out: In Vitro Cytotoxicity, EC50 ± SD, HaCaT. An excerpt: (§1) Initially, we phenotypically screened the synthesized compounds over a panel of tumor cell lines composed of HEPG2, A375, SHSY5Y, MCF7, and A549 derived from liver tumor, melanoma, neuroblastoma, breast cancer, and lung adenocarcinoma, respectively. We also considered the HaCaT cell line, coming from keratinocytes, as a healthy control line. As reference, cytotoxic chemotherapeutic agent 5-fluorouracil (5-FU) has been used. The results obtained performing the MTT (3-(4,5-dimethylthiazolyl-2)-2,5-diphenyltetrazolium bromide) assay are summarized in Table .
(§2) The human neuroblastoma SHSY5Y, melanoma A375, human breast cancer MCF7, nonsmall lung cancer A549, and human epidermal keratinocyte HaCaT cell lines were obtained from ATCC and were grown in Dulbecco’s Modified Eagle Medium (DMEM) supplemented with 10% (v/v) FBS, 2 mM L-glutamine, 100 U/mL penicillin, and 0.1 mg/mL streptomycin.
(§3) Cell viability was established by measuring mitochondrial metabolic activity with MTT. In brief, HEPG2 (1 × 10^4 cells/well), A375 (2 × 10^3 cells/well), HaCaT (3 × 10^3 cells/well), A549 (3 × 10^3 cells/well), SHSY5Y (2 × 10^4 cells/well), and MCF 7 (5 × 10^3 cells/well) were plated into 96-well plates for 24 h, then the compounds (0.01–40 μM) were added. After 24h, cells were replaced with a fresh medium containing 0.5 mg/mL MTT. Cells were incubated 1–3 h at 37 °C, then the medium was discarded, and formazan blue crystals in the cells were dissolved in 100 μL per well of a solution containing isopropanol/HCl 0.1 M. The absorbance was measured at 570 nm using a microplate reader (Multiskan Go, Thermo Scientific, Waltham, MA, USA). Cell viability was expressed as a percentage relative to the untreated cells cultured in medium with 0.1% DMSO and set to 100%, whereas 10% DMSO was used as positive control and set to 0% of viability. The EC50 values were calculated using GraphPad Prism 8.0 software by nonlinear regression of dose–response inhibition.
On the technique in general: Tetrazolium dyes change colour on reduction, which living cells bring about.

The subject of series [2] is SHSY5Y. Nature of the series: MTT cell viability assay. Format: cell-based. As to conditions: Homo sapiens, SH-SY5Y, 24 h, compounds 0.01–40 μM, read-out: In Vitro Cytotoxicity, EC50 ± SD, SHSY5Y.
Source text: as §1, §2, §3

For series [3], the system named is MCF7. Description: MTT cell viability assay. Type of series: cell-based. As to conditions: Homo sapiens, 24 h, compounds 0.01–40 μM, read-out: In Vitro Cytotoxicity, EC50 ± SD, MCF7.
Source text: as §1, §2, §3

Series [4] deals with A375. Nature of the series: MTT cell viability assay. Type of series: cell-based. As to conditions: Homo sapiens, A-375, 24 h, compounds 0.01–40 μM, read-out: In Vitro Cytotoxicity, EC50 ± SD, A375.
Source text: as §1, §2, §3

Series [5] concerns A549. Description: MTT cell viability assay. Format: cell-based. As to conditions: Homo sapiens, 24 h, compounds 0.01–40 μM, read-out: In Vitro Cytotoxicity, EC50 ± SD, A549.
Source text: as §1, §2, §3

Series [6] has as its system HEPG2. Description: MTT cell viability assay. Type of series: cell-based. As to conditions: Homo sapiens, 24 h, compounds 0.01–40 μM, read-out: In Vitro Cytotoxicity, EC50 ± SD, HEPG2.
Source text: as §1
The human hepatoma HEPG2 cell line was obtained from American Type Culture Collection (ATCC, Rockville, MD, USA). Cells were grown in Eagle’s Minimum Essential Medium (EMEM) supplemented with 10% (v/v) fetal bovine serum (FBS), 2 mM L-glutamine, 1% (v/v) nonessential amino acids, 100 U/mL penicillin, and 0.1 mg/mL streptomycin.
as §3

Series [7] relates to HaCaT. Description: MTT cell viability assay. Type of series: cell-based, human. The following applies: in words.
Source text: as §1, §2, §3

In series [8] the test system is cancer cell lines (HEPG2, A375, SHSY5Y, MCF7, A549). Nature of the series: MTT cytotoxicity screen over panel of tumor cell lines. Type of series: cell-based, human. The following applies: in words.
Source text: as §1, §3

As a reminder, the EC50 is the midpoint of the concentration-response curve. Regarding `O=c1[nH]cc(F)c(=O)[nH]1` [Compound 5-FU, 5-fluorouracil, reference compound], the EC50 at 24 h in series [1] is 0.481 ± 0.059 µM. For the same compound, the EC50 worked out at 0.072 ± 0.026 µM in series [2]; 0.023 ± 0.009 µM in series [3]; 0.032 ± 0.011 µM in series [4]; 0.047 ± 0.02 µM in series [5]; 0.056 ± 0.021 µM in series [6].

Consider `CC(C)C[C@@H](C(=O)NCc1ccccc1)N1Cc2ccccc2OC1=O` [Compound 7, (S)-N-Benzyl-4-methyl-2-(2-oxo-2H-benzo[e][1,3]oxazin-3(4H)-yl)pentanamide], for which, in series [7], the “cytotoxicity effect over the HaCaT cell lines” value is given as “exhibited cytotoxicity effect”. Moreover, in series [1], the EC50 at 24 h turned out to be 38.4 ± 4.54 µM. The EC50 in series [2] was 11.5 ± 2.05 µM; in series [3] it was 20.2 ± 3.57 µM; in series [4] it was 13.7 ± 1.4 µM; in series [5], more than 40 µM; in series [6], 35.6 ± 3.22 µM.

Turning to `CC(C)COC(=O)[C@H](Cc1ccccc1)n1c(=O)[nH]c2ccccc2c1=O` [Compound 22, Isobutyl (S)-2-(2,4-Dioxo-1,4-dihydroquinazolin-3(2H)-yl)-3-phenylpropanoate], the EC50 at 24 h in series [1] was determined as 27 ± 4.09 µM. Also, the EC50 in series [2] was 30.4 ± 3.92 µM; in series [3] it was 11.2 ± 3.14 µM; in series [4], 7.12 ± 2.54 µM; in series [5], 36.3 ± 5.72 µM; in series [6] it was 4.28 ± 2.04 µM.

For `CC(C)C[C@@H](C(=O)OCc1ccccc1)n1c(=O)[nH]c2ccccc2c1=O` [Compound 23, Benzyl (S)-2-(2,4-Dioxo-1,4-dihydroquinazolin-3(2H)-yl)-4-methylpentanoate], the 50% effective concentration (EC50) at 24 h in series [1] came out at 10.2 ± 1.84 µM. Further, in series [8], the “selectivity, tumor cell lines versus healthy line” value is reported as “lack of selectivity”. Besides, the EC50 in series [2] was 3.5 ± 1.41 µM; in series [3], 12.2 ± 2.64 µM; in series [4], 3.88 ± 1.64 µM; in series [5], 4.12 ± 1.89 µM; in series [6], 1.7 ± 1.05 µM.

With `O=C1N[C@@H](Cc2ccccc2)C(=O)N(Cc2ccc(C(F)(F)F)cc2)c2ccccc21` [Compound 28, (S)-3-Benzyl-1-(4-(trifluoromethyl)benzyl)-3,4-dihydro-1H-benzo[e][1,4]diazepine-2,5-dione], the EC50 at 24 h in series [1] was determined as 26.9 ± 4.4 µM. The “selectivity, tumor cell lines versus healthy line” value in series [8] is listed as “lack of selectivity”. Besides, the concentration for a half-maximal effect (EC50) was 10.7 ± 1.26 µM in series [2]; 11.7 ± 3.12 µM in series [3]; 13 ± 2.1 µM in series [4]; 8.8 ± 1.37 µM in series [5]; 11.1 ± 2.25 µM in series [6].

With `CC(C)C[C@@H]1NC(=O)c2ccccc2N(Cc2ccc(C(F)(F)F)cc2)C1=O` [Compound 29, (S)-3-Isobutyl-1-(4-(trifluoromethyl)benzyl)-3,4-dihydro-1H-benzo[e][1,4]diazepine-2,5-dione], the EC50 at 24 h in series [1] was more than 40 µM. For the same compound, the EC50 in series [2] is more than 40 µM; in series [3] it was more than 40 µM; in series [4], 29.4 ± 4.43 µM; in series [5], more than 40 µM; in series [6], 25.8 ± 2.74 µM.

Regarding `O=C1[C@H](Cc2ccccc2)N(Cc2ccc(C(F)(F)F)cc2)C(=O)c2ccccc2N1Cc1ccc(C(F)(F)F)cc1` [Compound 30, (S)-3-Benzyl-1,4-bis(4-(trifluoromethyl)benzyl)-3,4-dihydro-1H-benzo[e][1,4]diazepine-2,5-dione], the EC50 at 24 h in series [1] was more than 40 µM. The EC50 in series [2] was 37.3 ± 4.45 µM; in series [3], 13.8 ± 3.11 µM; in series [4], 7.44 ± 2.12 µM; in series [5], more than 40 µM; in series [6], 5.06 ± 1.73 µM.

With `CC(C)C[C@H]1CNc2ccccc2C(=O)N1Cc1ccc(C(F)(F)F)cc1` [Compound 33, (S)-3-Isobutyl-4-(4-(trifluoromethyl)benzyl)-1,2,3,4-tetrahydro-5H-benzo[e][1,4]diazepin-5-one], the EC50 at 24 h in series [1] was found to be 9.62 ± 1.12 µM. Also, the “selectivity, tumor cell lines versus healthy line” value in series [8] is recorded as “lack of selectivity”. The EC50 is 13.5 ± 2.22 µM in series [2]; 13.9 ± 2.78 µM in series [3]; 2.51 ± 1.02 µM in series [4]; 10.4 ± 1.01 µM in series [5]; 2.69 ± 0.85 µM in series [6].

As for `CC(C)C[C@H]1CN(Cc2ccc(C(F)(F)F)cc2)c2ccccc2C(=O)N1Cc1ccc(C(F)(F)F)cc1` [Compound 34, (S)-3-Isobutyl-1,4-bis(4-(trifluoromethyl)benzyl)-1,2,3,4-tetrahydro-5H-benzo[e][1,4]diazepin-5-one], in series [1], the EC50 at 24 h was more than 40 µM. Also, the EC50 in series [2] was more than 40 µM; in series [3], more than 40 µM; in series [4], 5.14 ± 2.15 µM; in series [5], 17.6 ± 3.65 µM; in series [6], 11.5 ± 2.16 µM.

Take `CC(C)CN1Cc2ccccc2NC[C@@H]1Cc1ccccc1` [Compound 37, (S)-3-Benzyl-4-isobutyl-2,3,4,5-tetrahydro-1H-benzo[e][1,4]diazepine]: the EC50 at 24 h in series [1] is more than 40 µM. For the same compound, the EC50 is more than 40 µM in series [2]; more than 40 µM in series [3]; 8.92 ± 2.72 µM in series [4]; more than 40 µM in series [5]; more than 40 µM in series [6].

Regarding `CC(C)C[C@H]1CN(Cc2ccc(C(F)(F)F)cc2)c2ccccc2CN1Cc1ccc(C(F)(F)F)cc1` [Compound 38, (S)-3-Isobutyl-1,4-bis(4-(trifluoromethyl)benzyl)-2,3,4,5-tetrahydro-1H-benzo[e][1,4]diazepine], the EC50 at 24 h in series [1] is more than 40 µM. The EC50 was more than 40 µM in series [2]; more than 40 µM in series [3]; 23.1 ± 3.1 µM in series [4]; 37.9 ± 1.64 µM in series [5]; 15.4 ± 1.71 µM in series [6].

On to `CC(C)C[C@@H]1NC(=O)[C@H](Cc2ccccc2)N(Cc2ccccc2)C1=O` [Compound 41, (3S,6S)-1,6-Dibenzyl-3-isobutylpiperazine-2,5-dione], for which the 50% effective concentration (EC50) at 24 h in series [1] was more than 40 µM. Also, in series [8], the “cytotoxic activity over the cancer cell lines” value is “no activity”. For the same compound, the EC50 in series [2], in series [3], in series [4], in series [5] and in series [6] was more than 40 µM in each case.

`CC(C)CN1c2ccccc2NC(=O)[C@@H]1Cc1ccccc1` [Compound 48, (S)-3-Benzyl-4-isobutyl-3,4-dihydroquinoxalin-2(1H)-one]: the EC50 at 24 h in series [1] was more than 40 µM. In addition, the “cytotoxic activity over the cancer cell lines” value in series [8] is reported as “no activity”. Further, the EC50 is more than 40 µM in series [2]; more than 40 µM in series [3]; more than 40 µM in series [4]; 35.5 ± 5.48 µM in series [5]; more than 40 µM in series [6].

With `CC(C)C[C@H]1C(=O)Nc2ccccc2N1Cc1ccccc1` [Compound 49, (S)-4-Benzyl-3-isobutyl-3,4-dihydroquinoxalin-2(1H)-one], in series [1], the EC50 at 24 h was more than 40 µM. For the same compound, the “cytotoxic activity over the cancer cell lines” value in series [8] is given as “no activity”. Further, the EC50 in series [2], in series [3], in series [4], in series [5] and in series [6] was more than 40 µM in each case.

As to `CC(C)C[C@@H]1NC(=O)OCc2ccccc2NC1=O` [Compound 52, (S)-3-Isobutyl-1,3,4,7-tetrahydrobenzo[g][1,3,6]oxadiazonine-2,5-dione], in series [1], the EC50 at 24 h was more than 40 µM. For the same compound, in series [8], the “cytotoxic activity over the cancer cell lines” value is “no activity”. Also, the 50% effective concentration (EC50) in series [2], in series [3], in series [4], in series [5] and in series [6] was more than 40 µM each time.

For `CC(C)COC(=O)[C@H](Cc1ccccc1)N1Cc2ccccc2NC1=O` [Compound 64, Isobutyl (S)-2-(2-Oxo-1,4-dihydroquinazolin-3(2H)-yl)-3-phenylpropanoate], in series [1], the EC50 at 24 h is 24.4 ± 4.51 µM. For the same compound, in series [8], the “selectivity, tumor cell lines versus healthy line” value is recorded as “lack of selectivity”. Further, the concentration giving a half-maximal response (EC50) in series [2] worked out at 28.2 ± 3.2 µM; in series [3], 9.55 ± 1.05 µM; in series [4], 8.64 ± 1.66 µM; in series [5], 32.3 ± 5.76 µM; in series [6], 7.97 ± 2.45 µM.

(Values after publication PMC12362587, “Untargeted Diversity-Oriented Synthesis for the Discovery of New Antitumor Agents: An Integrated Approach of Inverse Virtual Screening, Bioinformatics, and Omics for Target Deconvolution” (Journal of Medicinal Chemistry, 2025).)
